Assay [1] addresses T1, c-KIT T670I kinase (Homo sapiens, UniProt P10721, T670I).
T1 construct: The construct contains residues T544-V976 of cKit; GST (N); TEV cleavage site (internal); purchased deCODE Biostructures
Briefly: c-KIT T670I kinase assay. Conditions: enzymatic assay. Type of assay: biochemical. As for the experimental part: In this assay, the oxidation of NADH (measured by decrease in absorbance at 340 nm) was continuously monitored spectrophotometrically. […] The inhibition reaction was started by mixing serial diluted test compound with the above reaction mixture. The absorption at 340 nm was monitored continuously for 5 hours at 30 °C on Synergy 2 plate reader (BioTech). […] The protein construct was prepared by deCODE Biostructures using procedures known in the art. The construct contains […] of cKit, an N-terminal tag, a GST-fusion sequence and a TEV cleavage site. This construct is identical to Seq ID no. 1 except for the T670I mutation. [formula] [formula]

For assay [2], the target named is T2, c-KIT D816H kinase (Homo sapiens, UniProt P10721, D816H).
T2 construct: The construct contains residues T544-V976 of cKit; GST (N); TEV cleavage site (internal); purchased deCODE Biostructures
Briefly: c-KIT D816H Kinase Assay. Conditions: enzymatic assay, ATP 200 µM. The format is biochemical. As for the experimental part:
In this assay, the oxidation of NADH (measured by decrease in absorbance at 340 nm) was continuously monitored spectrophotometrically. […] The inhibition reaction was started by mixing serial diluted test compound with the above reaction mixture. The absorption at 340 nm was monitored continuously for 6 hours at 30 °C on Synergy 2 plate reader (BioTech). […] The protein construct was prepared by deCODE Biostructures using procedures known in the art. The construct contains […] of cKit, an N-terminal tag, a GST-fusion sequence and a TEV cleavage site. This construct is identical to Seq ID no.

For assay [3], the target named is c-KIT kinase (Homo sapiens, UniProt P10721). Briefly: c-KIT kinase Assay. The arrangement: cKIT residues T544-V976; GST (N); TEV cleavage site (internal); purchased deCODE Biostructures. Conditions: enzymatic assay, ATP 200 µM; read-out: KIT (wt) IC50. Type of assay: biochemical. As for the experimental part: In this assay, the oxidation of NADH (measured by decrease in absorbance at 340 nm) was continuously monitored spectrophotometrically. […] The absorption at 340 nm was monitored continuously for 2 hours at 30 °C on Synergy 2 (BioTeK). The reaction rate was calculated using the 0 to 1 h time frame. Percent inhibition was obtained by comparison of reaction rate with that of a control (i.e. with no test compound). IC50 values were calculated from a series of percent inhibition values determined at a range of inhibitor concentrations using software routines as implemented in the GraphPad Prism software package. The protein construct was prepared by deCODE Biostructures using procedures known in the art. The construct contains […] of cKit, an N-terminal tag, a GST-fusion sequence and a TEV cleavage site. [formula]

The target in assay [4] is T3, c-KIT D816V kinase (Homo sapiens, UniProt P10721, D816V).
T3 construct: residues T544-V976 with N-terminal GST fusion; purchased deCODE Biostructures
Briefly: c-KIT D816V kinase Assay. The format is biochemical. The conditions noted are these: enzymatic assay, ATP 200 uM. The procedure: In this assay, the oxidation of NADH (measured by decrease in absorbance at 340 nm) was continuously monitored spectrophotometrically. […] The inhibition reaction was started by mixing serial diluted test compound with the above reaction mixture. The absorption at 340 nm was monitored continuously for 5 hours at 30 °C on Synergy 2 plate reader (BioTech).
(§1) The protein construct was prepared by deCODE Biostructures using procedures known in the art. The construct contains residues T544-V976 of cKit, an N-terminal tag, a GST-fusion sequence and a TEV cleavage site. This construct is identical to Seq ID no.

Assay [5] has as its target T4, c-KIT V654A kinase (Homo sapiens, UniProt P10721, V654A).
T4 construct: residues T544-V976 with N-terminal GST fusion; purchased deCODE Biostructures
As to the kind of experiment: c-KIT V654A Kinase Assay. The conditions noted are these: enzymatic assay, ATP 200 µM. The format is biochemical. As for the experimental part: In this assay, the oxidation of NADH (measured by decrease in absorbance at 340 nm) was continuously monitored spectrophotometrically. […] The inhibition reaction was started by mixing serial diluted test compound with the above reaction mixture. The absorption at 340 nm was monitored continuously for 6 hours at 30 °C on Synergy 2 plate reader (BioTech).
as §1

In assay [6] the test system is GIST T1 cells. As to the kind of experiment: GIST T1 Cell Proliferation Assay. Type of assay: cell-based. The conditions noted are these: Homo sapiens, GISTT1, 72 h, 68 hours + 4 hours resazurin. As for the experimental part: (§2) GIST48, GIST430, and GIST882 cells were obtained from J. Fletcher (Brigham and Women's Hospital, Boston, MA). GIST T1 cells were obtained from B. Rubin (Cleveland Clinic, Cleveland, OH) and Professor Takahiro Taguchi (Kochi Medical School, Nankoku, Kochi, Japan). Briefly, GIST48 and GIST 882 cells were grown in RPMI 1640 medium supplemented with 15% characterized fetal bovine serum (Invitrogen, Carlsbad, CA), 1 unit/mL penicillin G, 1 µg/ml streptomycin, and 0.29 mg/mL L-glutamine at 37 °C, 5% CO2, and 95% humidity. GIST430 cells were grown in Ham's F10 medium supplemented with 15% characterized fetal bovine serum (Invitrogen, Carlsbad, CA), 30 mg/L bovine pituitary extract (BD Biosciences, San Jose, CA), 0.5% Mito+ serum extender (BD Biosciences, San Jose, CA), 1 unit/mL penicillin G, 1 µg/ml streptomycin, and 0.29 mg/mL L-glutamine at 37 °C, 5%CO2, 95% humidity. GIST T1 cells were grown in DMEM medium supplemented with 10% characterized fetal bovine serum (Invitrogen, Carlsbad, CA), 1 unit/mL penicillin G, 1 µg/ml streptomycin, and 0.29 mg/mL L-glutamine at 37 °C, 5% CO2, and 95% humidity.
A serial dilution of test compound was dispensed into a 384-well black clear bottom plate (Corning, Corning, NY). One thousand two-hundred fifty cells were added per well in 50 µL complete growth medium. Plates were incubated for 68 hours at 37 °C, 5% CO2, 95% humidity. At the end of the incubation period 10 µL of a 440 µM solution of resazurin (Sigma, St. Louis, MO) in PBS was added to each well and incubated for an additional 4 hours at 37 °C, 5% CO2, 95% humidity. Plates were read on a Synergy2 reader (Biotek, Winooski, VT) using an excitation of 540 nm and an emission of 600 nm.

Assay [7] deals with Phospho-KIT (Tyr719). As to the kind of experiment: GIST48 KIT Western Blot. Type of assay: cell-based. Conditions: GIST48 cells, 4 hours, serum-free medium; read-out: pKIT suppression by western blot analysi GIST48. The procedure:
as §2, with “Briefly, GIST48 and GIST 882 cells were grown in RPMI 1640 medium supplemented with 15% characterized fetal bovine serum (Invitrogen, Carlsbad, CA), 1 unit/mL penicillin G, 1 µg/ml streptomycin, and 0.29 mg/mL L-glutamine at 37 °C, 5% CO2, and 95% humidity.” left out
Two hundred fifty thousand cells were added per well in a 24-well tissue-culture treated plate. […] Medium was aspirated, cells were washed with PBS, and serum-free RPMI1640 medium was added. […] Cells were washed with PBS, then lysed. Cell lysates were separated by SDS-PAGE and transferred to PVDF. Phospho-KIT (Tyr719) was detected using an antibody from Cell Signaling Technology (Beverly, MA), ECL Plus detection reagent (GE Healthcare, Piscataway, NJ) and a Molecular Devices Storm 840 phosphorimager in fluorescence mode. Blots were stripped and probed for total KIT using an antibody from Santa Cruz Biotech (Santa Cruz, CA). IC50 values were calculated using Prism software (Graphpad, San Diego, CA).
For orientation: A western blot detects proteins with antibodies after separation by electrophoresis.

The structures appear in SMILES notation.

T3 sequence (P10721 544-976 D816V): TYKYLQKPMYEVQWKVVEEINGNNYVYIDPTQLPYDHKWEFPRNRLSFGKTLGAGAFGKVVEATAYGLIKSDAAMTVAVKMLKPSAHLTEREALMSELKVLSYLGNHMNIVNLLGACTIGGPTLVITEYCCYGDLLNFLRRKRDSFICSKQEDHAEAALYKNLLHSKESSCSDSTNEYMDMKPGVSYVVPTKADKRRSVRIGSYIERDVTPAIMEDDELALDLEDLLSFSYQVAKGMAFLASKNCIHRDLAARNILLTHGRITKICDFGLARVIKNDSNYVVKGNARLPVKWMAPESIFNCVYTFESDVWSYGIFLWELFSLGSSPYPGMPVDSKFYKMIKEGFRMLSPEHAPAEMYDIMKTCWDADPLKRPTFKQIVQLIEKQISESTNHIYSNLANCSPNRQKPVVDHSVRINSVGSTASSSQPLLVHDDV
c-KIT kinase, sequence (P10721 544-976): as the sequence (P10721 544-976 D816V) above, with V273D counted along it
T1 sequence (P10721 544-976 T670I): as the sequence (P10721 544-976 D816V) above, with T127I, V273D counted along it
T4 sequence (P10721 544-976 V654A): as the sequence (P10721 544-976 D816V) above, with V111A, V273D counted along it
T2 sequence (P10721 544-976 D816H): as the sequence (P10721 544-976 D816V) above, with V273H counted along it

Consider `CCn1c(=O)c(-c2cc(NC(=O)Nc3ccc(F)cc3)c(F)cc2Cl)cc2cnc(NCCOC)cc21` [Example 34, 1-(4-chloro-5-(1-ethyl-7-(2-methoxyethylamino)-2-oxo-1,2-dihydro-1,6-naphthyridin-3-yl)-2-fluorophenyl)-3-(4-fluorophenyl)urea], for which the IC50 in assay [1] is 10 to 100 nM; in assay [2], 10 to 100 nM; in assay [3] it was less than 10 nM; in assay [4], 10 to 100 nM; in assay [5] it was 10 to 100 nM.
`CCn1c(=O)c(-c2cc(NC(=O)Nc3ccccc3F)c(F)cc2Cl)cc2cnc(NCCOC)cc21` [Example 35, 1-(4-chloro-5-(1-ethyl-7-(2-methoxyethylamino)-2-oxo-1,2-dihydro-1,6-naphthyridin-3-yl)-2-fluorophenyl)-3-(2-fluorophenyl)urea]: the IC50 is 100 to 1000 nM in assay [1]; 10 to 100 nM in assay [2]; less than 10 nM in assay [3]; 10 to 100 nM in assay [4]; 10 to 100 nM in assay [5].
In the case of `CCn1c(=O)c(-c2cc(NC(=O)Nc3ccccc3)c(F)cc2C)cc2cnc(NCCOC)cc21` [Example 37, 1-(5-(1-ethyl-7-(2-methoxyethylamino)-2-oxo-1,2-dihydro-1,6-naphthyridin-3-yl)-2-fluoro-4-methylphenyl)-3-phenylurea], the IC50 in assay [1] is 100 to 1000 nM; in assay [2] it was 10 to 100 nM; in assay [3] it was less than 10 nM; in assay [4] it was 10 to 100 nM; in assay [5] it was 10 to 100 nM.
For the compound `CCn1c(=O)c(-c2cc(NC(=O)Nc3ccc(F)c(CN4CCN(C)CC4)c3)c(F)cc2C)cc2cnc(NC)cc21` [Example 89, 1-(5-(1-ethyl-7-(methylamino)-2-oxo-1,2-dihydro-1,6-naphthyridin-3-yl)-2-fluoro-4-methylphenyl)-3-(4-fluoro-3-((4-methylpiperazin-1-yl)methyl)phenyl)urea], the IC50 in assay [1] fell in the range of 10 to 100 nM; in assay [2], 10 to 100 nM; in assay [3] it was 10 to 100 nM; in assay [4], 100 to 1000 nM; in assay [5], 100 to 1000 nM.
For the compound `CCn1c(=O)c(-c2cc(NC(=O)Nc3cccc(C#N)c3)c(F)cc2Cl)cc2cnc(NC)cc21` [Example 91, 1-(4-chloro-5-(1-ethyl-7-(methylamino)-2-oxo-1,2-dihydro-1,6-naphthyridin-3-yl)-2-fluorophenyl)-3-(3-cyanophenyl)urea], the IC50 in assay [1] was 10 to 100 nM; in assay [2], 10 to 100 nM; in assay [3], less than 10 nM; in assay [4], 10 to 100 nM; in assay [5] it was 10 to 100 nM.
As for `CCn1c(=O)c(-c2cc(NC(=O)Nc3ccc(F)c(CN4CCCC4)c3)c(F)cc2Cl)cc2cnc(NC)cc21` [Example 97, 1-(4-chloro-5-(1-ethyl-7-(methylamino)-2-oxo-1,2-dihydro-1,6-naphthyridin-3-yl)-2-fluorophenyl)-3-(4-fluoro-3-(pyrrolidin-1-ylmethyl)phenyl)urea], the IC50 in assay [6] was less than 10 nM.
With `Cc1cc(F)c(NC(=O)Nc2ccccc2)cc1-c1cc2cnc(NC(=O)N3CCC3)cc2n(C(C)C)c1=O` [Example 109, N-(3-(4-fluoro-2-methyl-5-(3-phenylureido)phenyl)-1-isopropyl-2-oxo-1,2-dihydro-1,6-naphthyridin-7-yl)azetidine-1-carboxamide], in assay [7], the IC50 lay within 10 to 100 nM.
Turning to `CCn1c(=O)c(-c2cc(NC(=O)Nc3ccccc3)c(F)cc2C)cc2cnc(NC(=O)N3CCC3)cc21` [Example 110, N-(1-ethyl-3-(4-fluoro-2-methyl-5-(3-phenylureido)phenyl)-2-oxo-1,2-dihydro-1,6-naphthyridin-7-yl)azetidine-1-carboxamide], the IC50 in assay [1] is 10 to 100 nM; in assay [2] it was 10 to 100 nM; in assay [3] it was 10 to 100 nM; in assay [7], less than 10 nM; in assay [4], 10 to 100 nM; in assay [5] it was 10 to 100 nM.
For `CCn1c(=O)c(-c2cc(NC(=O)Nc3ccccc3)c(F)cc2F)cc2cnc(NC(=O)N(C)C)cc21` [Example 112, 3-(3-(2,4-difluoro-5-(3-phenylureido)phenyl)-1-ethyl-2-oxo-1,2-dihydro-1,6-naphthyridin-7-yl)-1,1-dimethylurea], the IC50 was less than 10 nM in assay [1], less than 10 nM in assay [2], less than 10 nM in assay [3] and 10 to 100 nM in assay [4].
Turning to `CCn1c(=O)c(-c2cc(NC(=O)Nc3ccccc3)c(F)cc2C)cc2cnc(NC(=O)N3CC(N(C)C)C3)cc21` [Example 113, 3-(dimethylamino)-N-(1-ethyl-3-(4-fluoro-2-methyl-5-(3-phenylureido)phenyl)-2-oxo-1,2-dihydro-1,6-naphthyridin-7-yl)azetidine-1-carboxamide], the IC50 was 10 to 100 nM in assay [1]; less than 10 nM in assay [2]; 10 to 100 nM in assay [3]; 10 to 100 nM in assay [4]; 100 to 1000 nM in assay [5].
